Reference: patent US11708359B2, “Monoacylglycerol lipase modulators” (Janssen Pharmaceutica NV, priority 2020, dated 2023)

What follows are molecules tested against human MGL from HeLa cells (Homo sapiens (Human), UniProt Q99685) (assay: MGL in vitro activity assay ([glycerol-1,3-3H]-oleoyl glycerol cleavage, activated carbon filter)). Conditions: not given.
Type: biochemical
Experimental: The assay consists of combining endogenously expressed MGL from HeLa cells with test compounds, adding[glycerol-1,3-^3H]-oleoyl glycerol, incubating for one hour, and then measuring the amount of cleaved[1,3-^3H]-glycerol that passes through an activated carbon filter. The amount of cleaved, tritiated glycerol passing through the carbon filter is proportional to the activity of the MGL enzyme in a particular well/test condition.
Standard conditions for this assay combine 300 nM [Glycerol-1,3-^3H]-oleoyl glycerol with human MGL from HeLa cells and test compounds for one hour, after which the reaction is filtered through activated carbon and tritium is measured in the flow through. […] MGL is the predominant hydrolase in HeLa cells/cell homogenates.

human MGL from HeLa cells, sequence (Q99685 whole entry): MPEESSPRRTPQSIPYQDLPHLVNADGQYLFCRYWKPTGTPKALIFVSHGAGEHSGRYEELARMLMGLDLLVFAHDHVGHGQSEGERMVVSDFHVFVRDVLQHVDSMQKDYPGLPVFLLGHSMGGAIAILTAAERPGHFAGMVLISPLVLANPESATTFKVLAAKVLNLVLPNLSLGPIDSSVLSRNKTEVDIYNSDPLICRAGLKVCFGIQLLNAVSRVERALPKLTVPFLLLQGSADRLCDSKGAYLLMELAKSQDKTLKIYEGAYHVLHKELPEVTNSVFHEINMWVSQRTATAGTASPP

| Structure (SMILES) | IC50 [nM] |
| --- | --- |
| O=C1N[C@]2(CO1)C[C@H](C(=O)N1CCC3(c4cccc(OC(F)(F)F)c4)CC3C1)C2 (mixture of isomers) [Example 49, (rac)-(2s,4s)-2-(6-(3-(Trifluoromethoxy)phenyl)-3-azabicyclo[4.1.0]heptane-3-carbonyl)-7-oxa-5-azaspiro[3.4]octan-6-one] | 1.6 |

Same assay, conditions: 300 nM [Glycerol-1,3-3H]-oleoyl glycerol, endogenously expressed MGL from HeLa cells, one hour incubation; read-out: MGL IC50

| Structure (SMILES) | IC50 [nM] |
| --- | --- |
| O=C1N[C@]2(CO1)C[C@H](C(=O)N1CC3CC3(c3ccccc3)C1)C2 (mixture of isomers) [Example 4, (rac)-(2s,4s)-2-(1-Phenyl-3-azabicyclo[3.1.0]hexane-3-carbonyl)-7-oxa-5-azaspiro[3.4]octan-6-one] | 49 |
| CC(C)c1cccc(C23CC2CN(C(=O)[C@H]2C[C@]4(COC(=O)N4)C2)C3)c1 (mixture of isomers) [Example 6, (rac)-(2s,4s)-2-(1-(3-Isopropylphenyl)-3-azabicyclo[3.1.0]hexane-3-carbonyl)-7-oxa-5-azaspiro[3.4]octan-6-one] | 6.9 |
| CC(C)c1ccc(C23CC2CN(C(=O)[C@H]2C[C@]4(COC(=O)N4)C2)C3)cc1 (mixture of isomers) [Example 9, (rac)-(2s,4s)-2-(1-(4-Isopropylphenyl)-3-azabicyclo[3.1.0]hexane-3-carbonyl)-7-oxa-5-azaspiro[3.4]octan-6-one] | 2.2 |
| CC(C)c1ccc(C23CC2CN(C(=O)[C@H]2C[C@]4(CCC(=O)N4)C2)C3)cc1 (mixture of isomers) [Example 12, (rac)-(2r,4s)-2-(1-(4-Isopropylphenyl)-3-azabicyclo[3.1.0]hexane-3-carbonyl)-5-azaspiro[3.4]octan-6-one] | 14 |
| CC(C)(C)c1ccc(C23CC2CN(C(=O)[C@H]2C[C@]4(CCC(=O)N4)C2)C3)cc1 (mixture of isomers) [Example 13, (rac)-(2r,4s)-2-(1-(4-(tert-Butyl)phenyl)-3-azabicyclo[3.1.0]hexane-3-carbonyl)-5-azaspiro[3.4]octan-6-one] | 9.2 |
| O=C1N[C@]2(CO1)C[C@H](C(=O)N1CC3CC3(c3cccc(C4CC4)c3)C1)C2 (mixture of isomers) [Example 16, (rac)-(2s,4s)-2-(1-(3-Cyclopropylphenyl)-3-azabicyclo[3.1.0]hexane-3-carbonyl)-7-oxa-5-azaspiro[3.4]octan-6-one] | 5.6 |
| O=C1N[C@]2(CO1)C[C@H](C(=O)N1CC3CC3(c3ccc(C4CC4)cc3)C1)C2 (mixture of isomers) [Example 18, (rac)-(2s,4s)-2-(1-(4-Cyclopropylphenyl)-3-azabicyclo[3.1.0]hexane-3-carbonyl)-7-oxa-5-azaspiro[3.4]octan-6-one] | 4.4 |
| O=C1N[C@]2(CO1)C[C@H](C(=O)N1CC3CC3(c3cccc(OC(F)(F)F)c3)C1)C2 (mixture of isomers) [Example 19, (rac)-(2s,4s)-2-(1-(3-(Trifluoromethoxy)phenyl)-3-azabicyclo[3.1.0]hexane-3-carbonyl)-7-oxa-5-azaspiro[3.4]octan-6-one] | 11 |
| Cc1ccccc1C12CC1CN(C(=O)[C@H]1C[C@]3(COC(=O)N3)C1)C2 (mixture of isomers) [Example 20, (rac)-(2s,4s)-2-(1-(o-Tolyl)-3-azabicyclo[3.1.0]hexane-3-carbonyl)-7-oxa-5-azaspiro[3.4]octan-6-one] | 6.5 |
| Cc1cccc(C23CC2CN(C(=O)[C@H]2C[C@]4(COC(=O)N4)C2)C3)c1 (mixture of isomers) [Example 21, (rac)-(2s,4s)-2-(1-(m-Tolyl)-3-azabicyclo[3.1.0]hexane-3-carbonyl)-7-oxa-5-azaspiro[3.4]octan-6-one] | 14 |
| O=C1N[C@]2(CO1)C[C@H](C(=O)N1CC3CC3(c3ccc(OC(F)(F)F)cc3)C1)C2 (mixture of isomers) [Example 22, (rac)-(2s,4s)-2-(1-(4-(Trifluoromethoxy)phenyl)-3-azabicyclo[3.1.0]hexane-3-carbonyl)-7-oxa-5-azaspiro[3.4]octan-6-one] | 16 |
| O=C1N[C@]2(CO1)C[C@H](C(=O)N1CC3CC3(c3cccc(C(F)(F)F)c3)C1)C2 (mixture of isomers) [Example 23, (rac)-(2s,4s)-2-(1-(3-(Trifluoromethyl)phenyl)-3-azabicyclo[3.1.0]hexane-3-carbonyl)-7-oxa-5-azaspiro[3.4]octan-6-one] | 14 |
| O=C1N[C@]2(CO1)C[C@H](C(=O)N1CC3CC3(c3ccc(C(F)(F)F)cc3)C1)C2 (mixture of isomers) [Example 24, (rac)-(2s,4s)-2-(1-(4-(Trifluoromethyl)phenyl)-3-azabicyclo[3.1.0]hexane-3-carbonyl)-7-oxa-5-azaspiro[3.4]octan-6-one] | 15 |
| Cc1ccc(C23CC2CN(C(=O)[C@H]2C[C@]4(COC(=O)N4)C2)C3)cc1C(F)(F)F (mixture of isomers) [Example 25, (rac)-(2s,4s)-2-(1-(4-Methyl-3-(trifluoromethyl)phenyl)-3-azabicyclo[3.1.0]hexane-3-carbonyl)-7-oxa-5-azaspiro[3.4]octan-6-one] | 3.6 |
| CC1(c2ccc(C34CC3CN(C(=O)[C@H]3C[C@]5(CCC(=O)N5)C3)C4)cc2)CC1 (mixture of isomers) [Example 27, (rac)-(2r,4s)-2-(1-(4-(1-Methylcyclopropyl)phenyl)-3-azabicyclo[3.1.0]hexane-3-carbonyl)-5-azaspiro[3.4]octan-6-one] | 9.5 |
| O=C1N[C@]2(CO1)C[C@H](C(=O)N1CC3CC3(c3ccc(Oc4ccccc4)cc3)C1)C2 (mixture of isomers) [Example 28, (rac)-(2s,4s)-2-(1-(4-Phenoxyphenyl)-3-azabicyclo[3.1.0]hexane-3-carbonyl)-7-oxa-5-azaspiro[3.4]octan-6-one] | 1.7 |
| O=C1N[C@]2(CO1)C[C@H](C(=O)N1CC3CC3(c3cccc(Oc4ccccc4)c3)C1)C2 (mixture of isomers) [Example 29, (rac)-(2s,4s)-2-(1-(3-Phenoxyphenyl)-3-azabicyclo[3.1.0]hexane-3-carbonyl)-7-oxa-5-azaspiro[3.4]octan-6-one] | 1.5 |
| Cc1ccc(C23CC2CN(C(=O)[C@H]2C[C@]4(COC(=O)N4)C2)C3)cc1Cl (mixture of isomers) [Example 30, (rac)-(2s,4s)-2-(1-(3-Chloro-4-methylphenyl)-3-azabicyclo[3.1.0]hexane-3-carbonyl)-7-oxa-5-azaspiro[3.4]octan-6-one] | 2.9 |
| CC1(c2cccc(C34CC3CN(C(=O)[C@H]3C[C@]5(COC(=O)N5)C3)C4)c2)CC1 (mixture of isomers) [Example 31, (rac)-(2s,4s)-2-(1-(3-(1-Methylcyclopropyl)phenyl)-3-azabicyclo[3.1.0]hexane-3-carbonyl)-7-oxa-5-azaspiro[3.4]octan-6-one] | 1.1 |
| Cc1cc(C(F)(F)F)ccc1C12CC1CN(C(=O)[C@H]1C[C@]3(COC(=O)N3)C1)C2 (mixture of isomers) [Example 33, (rac)-(2s,4s)-2-(1-(2-Methyl-4-(trifluoromethyl)phenyl)-3-azabicyclo[3.1.0]hexane-3-carbonyl)-7-oxa-5-azaspiro[3.4]octan-6-one] | 2.5 |
| Cc1cc(OC(F)(F)F)ccc1C12CC1CN(C(=O)[C@H]1C[C@]3(COC(=O)N3)C1)C2 (mixture of isomers) [Example 34, (rac)-(2s,4s)-2-(1-(2-Methyl-4-(trifluoromethoxy)phenyl)-3-azabicyclo[3.1.0]hexane-3-carbonyl)-7-oxa-5-azaspiro[3.4]octan-6-one] | 3.1 |
| Cc1cc(C23CC2CN(C(=O)[C@H]2C[C@]4(COC(=O)N4)C2)C3)ccc1OC(F)(F)F (mixture of isomers) [Example 35, (rac)-(2s,4s)-2-(1-(3-Methyl-4-(trifluoromethoxy)phenyl)-3-azabicyclo[3.1.0]hexane-3-carbonyl)-7-oxa-5-azaspiro[3.4]octan-6-one] | 6.5 |
| Cc1cc(C23CC2CN(C(=O)[C@H]2C[C@]4(COC(=O)N4)C2)C3)ccc1C(F)(F)F (mixture of isomers) [Example 36, (rac)-(2s,4s)-2-(1-(3-Methyl-4-(trifluoromethyl)phenyl)-3-azabicyclo[3.1.0]hexane-3-carbonyl)-7-oxa-5-azaspiro[3.4]octan-6-one] | 3.2 |
| Cc1ccc(C23CC2CN(C(=O)[C@H]2C[C@]4(COC(=O)N4)C2)C3)cc1F (mixture of isomers) [Example 37, (rac)-(2s,4s)-2-(1-(3-Fluoro-4-methylphenyl)-3-azabicyclo[3.1.0]hexane-3-carbonyl)-7-oxa-5-azaspiro[3.4]octan-6-one] | 10 |
| O=C1N[C@]2(CO1)C[C@H](C(=O)N1CCC3(c4ccccc4)CC3C1)C2 (mixture of isomers) [Example 39, (rac)-(2s,4s)-2-(6-Phenyl-3-azabicyclo[4.1.0]heptane-3-carbonyl)-7-oxa-5-azaspiro[3.4]octan-6-one] | 20 |
| Cc1cccc(C23CCN(C(=O)[C@H]4C[C@]5(COC(=O)N5)C4)CC2C3)c1 (mixture of isomers) [Example 43, (rac)-(2s,4s)-2-(6-(m-Tolyl)-3-azabicyclo[4.1.0]heptane-3-carbonyl)-7-oxa-5-azaspiro[3.4]octan-6-one] | 8.2 |
| Cc1ccc(C23CCN(C(=O)[C@H]4C[C@]5(COC(=O)N5)C4)CC2C3)cc1F (mixture of isomers) [Example 46, (rac)-(2s,4s)-2-(6-(3-Fluoro-4-methylphenyl)-3-azabicyclo[4.1.0]heptane-3-carbonyl)-7-oxa-5-azaspiro[3.4]octan-6-one] | 3.7 |
| O=C1CC[C@]2(C[C@H](C(=O)N3CCC4(c5cccc(OC(F)(F)F)c5)CC4C3)C2)N1 (mixture of isomers) [Example 52, (rac)-(2r,4s)-2-(6-(3-(Trifluoromethoxy)phenyl)-3-azabicyclo[4.1.0]heptane-3-carbonyl)-5-azaspiro[3.4]octan-6-one] | 4.8 |
| O=C1N[C@]2(CO1)C[C@H](C(=O)N1CCC3(c4ccc(OC(F)(F)F)cc4)CC3C1)C2 (mixture of isomers) [Example 54, (rac)-(2s,4s)-2-(6-(4-(Trifluoromethoxy)phenyl)-3-azabicyclo[4.1.0]heptane-3-carbonyl)-7-oxa-5-azaspiro[3.4]octan-6-one] | 2.5 |
